Patent US20250135022A1, “METHODS FOR THE USE OF A B7-H3 ANTIBODY-DRUG CONJUGATE IN COMBINATION WITH A PD-1 X CTLA-4 BISPECIFIC MOLECULE” (MACROGENICS, INC., priority 2022, published 2025)

Assays:
Calu-6 lung cancer cells = test: Anti-tumor activity against subcutaneously implanted Calu-6 xenograft in SCID CES1c-KO mouse model; format: in vivo, SCID CES1c-KO mice; design: key to Anti-Tumor Activity: Highly Active: A T/C<10% is considered highly active; Active: a T/C≤42% is the minimum level of anti-tumor activity; Inactive: a T/C value of >42% is inactive
Description: In brief, ˜5×10^6 tumor cells (suspended in 1:1 media and MATRIGEL®) were subcutaneously implanted into the flank of female SCID CES1c-KO mice (Charles River Laboratories). When tumors had reached a volume of approximately 50-180 mm^3 (average 105 mm^3) on day 16, the mice were randomized and MGC018 or control vehicle were administered intravenously. In these studies, mice were administered either a single dose (1 mg/kg or 3 mg/kg, QW×1) of MGC018 or a fractionated dose of MGC018 (0.3 mg/kg or 1 mg/kg) once a week for 4 weeks (QW×4W). Vehicle was administered as a control on day 16. Tumors were measured twice weekly by orthogonal measurements with electronic calipers, with tumor volumes calculated as: (length×width×height)/2. The tumor volume (relative to control) was determined (“T/C”). A finding that the tumor volume of treated animals had decreased to ≤5 mm^3 during the study period was considered to denote a Complete Regression (“CR”) and a Partial Regression (“PR”) was defined when tumors were reduced by 50% or greater from day of dosing at any point during the study.

[1] = Population pharmacokinetic (PPK) modeling of clinical PK data from a dose escalation trial; format: in vivo, human
Description: To analyze the pharmacokinetics of single and fractionated dose administration of MGC018, population pharmacokinetic (PPK) modeling was performed on clinical PK data from a dose escalation trial of MGC018. The initial model was based on data from 52 patients (516 ADC observations, 495 payload observations) and later updated with data from a total of 122 patients. MGC018 concentration values below quantification limit (BQL) were excluded from the analysis but were retained (commented out) in the data set.
The PPK analysis was conducted via nonlinear mixed-effects modeling with INTERACTION option (FOCEI) method using the NONMEM software, Version 7.5.0 (ICON Development Solutions). A quasi-steady-state (QSS) approximation of the target-mediated drug disposition (TMDD) model was used to describe the observed ADC data. All clearance and volume parameters were scaled allometrically. Goodness-of-fit plots and diagnostics (including standard error of the estimates) were used to evaluate the model fit. Due to the small sample size (52 subjects) no formal covariate analysis was attempted, although dependence of model parameters on weight, dose, and sex was investigated using diagnostic plots or by inclusion in the model. Ability of the model to describe strong covariate relationships identified by the model was tested by stratifying the diagnostic plots and model evaluation procedures by the covariates of interest. Specifically, the diagnostics and the predictive check procedures were stratified by dose (cohort).
Of the models evaluated, a linear 2-compartment with individual random effects on clearance (CL), central volume (Vc), peripheral volume (VP), inter-compartment clearance (Q), and proportional residual variability) best described the observed ADC data and advanced for further development of the combined ADC-free payload model. The free payload was described by a 1-compartment model with random effects on free payload clearance (CLTOX) and volume (VTOX) parameters with the input (from ADC) to both the central and delay compartments, with the random effects on the delay rate constant Ktr, CLTOX, and VTOX. The final model (Model 151) was selected based on diagnostics and goodness-of-fit and used to estimate MGC018 PK parameters. According to the model, elimination from the ADC was directed to the free payload, to the delay and central free payload compartments. Approximately equal fractions of ADC elimination went to each of these compartments. […] Thus, the free payload kinetics were defined by the kinetics of ADC and delay between ADC elimination and input to the free payload central compartment

[2] = 0.3 mg/kg, QW × 4W, intravenous

Substance: MGC018: B7-H3-ADC: Light and Heavy Chain of anti-B7-H3 hmAb-A (SEQ ID NO:19, 20) conjugated via maleimide, valine-citrulline, para-aminobenzyloxycarbonyl linker to seco-DUBA payload
- % T/C at Day 50 (Calu-6 lung cancer cells; [2]): 61%
- Anti-Tumor Activity (Calu-6 lung cancer cells; [2]): Inactive
- CR (complete regression) (Calu-6 lung cancer cells; [2]): 0/6
- PR (partial regression) (Calu-6 lung cancer cells; [2]): 0/6
- % T/C at Day 50 (Calu-6 lung cancer cells; 1 mg/kg, QW × 1, intravenous): 49%
- Anti-Tumor Activity (Calu-6 lung cancer cells; 1 mg/kg, QW × 1, intravenous): Inactive
- CR (complete regression) (Calu-6 lung cancer cells; 1 mg/kg, QW × 1, intravenous): 0/6
- PR (partial regression) (Calu-6 lung cancer cells; 1 mg/kg, QW × 1, intravenous): 0/6
- % T/C at Day 50 (Calu-6 lung cancer cells; 1 mg/kg, QW × 4W, intravenous): 17%
- Anti-Tumor Activity (Calu-6 lung cancer cells; 1 mg/kg, QW × 4W, intravenous): Active
- CR (complete regression) (Calu-6 lung cancer cells; 1 mg/kg, QW × 4W, intravenous): 0/6
- PR (partial regression) (Calu-6 lung cancer cells; 1 mg/kg, QW × 4W, intravenous): 0/6
- % T/C at Day 50 (Calu-6 lung cancer cells; 3 mg/kg, QW × 1, intravenous): 25%
- Anti-Tumor Activity (Calu-6 lung cancer cells; 3 mg/kg, QW × 1, intravenous): Active
- CR (complete regression) (Calu-6 lung cancer cells; 3 mg/kg, QW × 1, intravenous): 0/6
- PR (partial regression) (Calu-6 lung cancer cells; 3 mg/kg, QW × 1, intravenous): 0/6
- anti-tumor activity of fractionated dose compared with single dose (Calu-6 lung cancer cells; fractionated 0.3 and 1 mg/kg QW×4W vs single 1 or 3 mg/kg QW×1): near equivalent anti-tumor activity
- central volume (V) ([1]; ADC, typical 75 kg subject): 3.72 L
- clearance (CL) ([1]; ADC, typical 75 kg subject): 1.68 L/day
- distribution half-life (t1/2 dist) ([1]; ADC, typical 75 kg subject): 35.5 h
- inter-compartment clearance (Q) ([1]; ADC, typical 75 kg subject): 0.0549 L/day
- peripheral volume (Vp) ([1]; ADC, typical 75 kg subject): 0.700 L
- terminal half-life (t1/2 term) ([1]; ADC, typical 75 kg subject): 220 h
- half-life corresponding to delay rate constant ([1]; Model 151): 130 h
- delay rate constant (Ktr) ([1]; delay between ADC elimination and input to free payload central compartment, Model 151): 0.128 day⁻¹
- free payload elimination rate constant KTOX=CLTOX/VTOX ([1]; free payload, Model 151): 52.5 day⁻¹
- half-life corresponding to free payload elimination rate constant ([1]; free payload, Model 151): about 20 minutes
